In ChEMBL document CHEMBL2074202, “Biliary excretion of pravastatin in rats: contribution of the excretion pathway mediated by canalicular multispecific organic anion transporter” (Drug Metab Dispos, 1997):

Assays:
[1] = biological target: ATP-binding cassette sub-family C member 2 (Rattus norvegicus, UniProt Q63120); test: TP_TRANSPORTER: inhibition of DNP-SG uptake in bile canalicular membrane vesicles from SD rat; type: functional, cell membranes, Sprague-Dawley, Bile canalicular membrane vesicle
[2] = substrate: CC[C@H](C)C(=O)O[C@H]1C[C@H](O)C=C2C=C[C@H](C)[C@H](CC[C@@H](O)C[C@@H](O)CC(=O)O)[C@H]21; test: TP_TRANSPORTER: uptake in bile canalicular membrane vesicles from SD rat; type: functional, cell membranes, Sprague-Dawley, Bile canalicular membrane vesicle

Row | Ki [1] [µM] | Molecule | Km [2] [µM]
1 | 172 | CC[C@H](C)C(=O)O[C@H]1C[C@H](O)C=C2C=C[C@H](C)[C@H](CC[C@@H](O)C[C@@H](O)CC(=O)O)[C@H]21 [PRAVASTATIN] | 
2 |  | ATP-binding cassette sub-family C member 2 (Rattus norvegicus) (protein) MDKFCNSTFWDLSLLESPEADLPLCFEQTVLVWIPLGFLWLLAPWQLYSVYRSRTKRSSITKFYLAKQVFVVFLLILAAIDLSLALTEDTGQATVPPVRYTNPILYLCTWLLVLAVQHSRQWCVRKNSWFLSLFWILSVLCGVFQFQTLIRALLKDSKSNMAYSYLFFVSYGFQIVLLILTAFSGPSDSTQTPSVTASFLSSITFSWYDRTVLKGYKHPLTLEDVWDIDEGFKTRSVTSKFEAAMTKDLQKARQAFQRRLQKSQRKPEATLHGLNKKQSQSQDVLVLEEAKKKSEKTTKDYPKSWLIKSLFKTFHVVILKSFILKLIHDLLVFLNPQLLKLLIGFVKSSNSYVWFGYICAILMFAVTLIQSFCLQSYFQHCFVLGMCVRTTVMSSIYKKALTLSNLARKQYTIGETVNLMSVDSQKLMDATNYMQLVWSSVIQITLSIFFLWRELGPSILAGVGVMVLLIPVNGVLATKIRNIQVQNMKNKDKRLKIMNEILSGIKILKYFAWEPSFQEQVQGIRKKELKNLLRFGQLQSLLIFILQITPILVSVVTFSVYVLVDSANVLNAEKAFTSITLFNILRFPLSMLPMVTSSILQASVSVDRLERYLGGDDLDTSAIRRVSNFDKAVKFSEASFTWDPDLEATIQDVNLDIKPGQLVAVVGTVGSGKSSLVSAMLGEMENVHGHITIQGSTAYVPQQSWIQNGTIKDNILFGSEYNEKKYQQVLKACALLPDLEILPGGDMAEIGEKGINLSGGQKQRVSLARAAYQDADIYILDDPLSAVDAHVGKHIFNKVVGPNGLLAGKTRIFVTHGIHFLPQVDEIVVLGKGTILEKGSYRDLLDKKGVFARNWKTFMKHSGPEGEATVNNDSEAEDDDDGLIPTMEEIPEDAASLAMRRENSLRRTLSRSSRSSSRRGKSLKNSLKIKNVNVLKEKEKEVEGQKLIKKEFVETGKVKFSIYLKYLQAVGWWSILFIILFYGLNNVAFIGSNLWLSAWTSDSDNLNGTNNSSSHRDMRIGVFGALGLAQGICLLISTLWSIYACRNASKALHGQLLTNILRAPMRFFDTTPTGRIVNRFSGDISTVDDLLPQTLRSWMMCFFGIAGTLVMICMATPVFAIIIIPLSILYISVQVFYVATSRQLRRLDSVTKSPIYSHFSETVTGLPIIRAFEHQQRFLAWNEKQIDINQKCVFSWITSNRWLAIRLELVGNLVVFCSALLLVIYRKTLTGDVVGFVLSNALNITQTLNWLVRMTSEAETNIVAVERISEYINVENEAPWVTDKRPPADWPRHGEIQFNNYQVRYRPELDLVLKGITCNIKSGEKVGVVGRTGAGKSSLTNCLFRILESAGGQIIIDGIDVASIGLHDLRERLTIIPQDPILFSGSLRMNLDPFNKYSDEEVWRALELAHLRSFVSGLQLGLLSEVTEGGDNLSIGQRQLLCLGRAVLRKSKILVLDEATAAVDLETDSLIQTTIRKEFSQCTVITIAHRLHTIMDSDKIMVLDNGKIVEYGSPEELLSNRGSFYLMAKEAGIENVNHTEL | 223
